Read-outs that look alike come from different tables or passages of the source.
How the values were obtained:
PD-L1:PD-1 binding = PD-L1:PD-1 binding (Homo sapiens, UniProt Q9NZQ7); settings: competition ELISA, n=2
PD-L1 [1] = molecular target: T1, PD-L1 (Homo sapiens, UniProt Q9NZQ7); settings: TR-FRET
PD-L1 [2] = molecular target: T1, PD-L1; settings: SPR
PD-L1 [3] = molecular target: T1, PD-L1; settings: analytical SEC and TR-FRET experiments
beta-catenin [4] = molecular target: T2, beta-catenin (Homo sapiens, UniProt P35222); assay: SPR binding of Helicons to immobilized beta-catenin
T2 construct: made in house; host or cells: E. coli BL21 (DE3) pLysS
T2 sequence (P35222 134-665): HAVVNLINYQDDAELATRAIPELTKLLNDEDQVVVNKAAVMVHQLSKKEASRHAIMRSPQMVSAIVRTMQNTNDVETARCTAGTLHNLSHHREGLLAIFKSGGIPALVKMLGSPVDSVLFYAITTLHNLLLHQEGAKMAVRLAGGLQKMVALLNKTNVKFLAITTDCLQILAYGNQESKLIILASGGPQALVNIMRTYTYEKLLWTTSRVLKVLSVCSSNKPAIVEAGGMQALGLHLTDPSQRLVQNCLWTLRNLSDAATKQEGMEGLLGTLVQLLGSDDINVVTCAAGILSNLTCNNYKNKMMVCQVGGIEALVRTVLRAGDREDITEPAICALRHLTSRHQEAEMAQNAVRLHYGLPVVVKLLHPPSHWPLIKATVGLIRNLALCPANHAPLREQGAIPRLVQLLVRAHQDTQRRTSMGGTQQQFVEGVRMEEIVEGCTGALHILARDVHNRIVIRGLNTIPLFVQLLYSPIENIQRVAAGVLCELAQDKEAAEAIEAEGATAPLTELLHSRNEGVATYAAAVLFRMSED

beta-catenin [5] = molecular target: T3, beta-catenin (Homo sapiens, UniProt P35222); assay: Competition FP, beta-catenin vs Axin-derived Helicon probe; assay type: binding
T3 construct: 10 nM full-length β-catenin (Uniprot ID P35222); 6×His-thrombin-T7-TEV (N); made in house; host or cells: E. coli BL21 (DE3) pLysS

beta-catenin [6] = molecular target: T3, beta-catenin; assay: Competition FP, beta-catenin vs beta-catenin-binding domain of TCF4; settings: read-out: IC50 (μM, TCF)
MDM2 and β-catenin = molecular target: T4, MDM2 and β-catenin (Homo sapiens, UniProt P35222+Q00987); assay: Direct FP ternary complex formation, fluorescent MDM2 and beta-catenin; assay type: biochemical; settings: fluorescent p53-binding domain of MDM2
T4 construct: 6×His-TEV (N, cleaved yes); 6×His-yBBr-TEV (N); made in house; host or cells: E. coli BL21 (DE3) (MDM2); E. coli BL21 (DE3) pLysS (β-catenin)

MDM4 = molecular target: T5, MDM4 (Homo sapiens, UniProt O15151, C17S); assay: Direct FP ternary complex formation, fluorescent MDM4 and beta-catenin; assay type: biochemical; settings: fluorescent p53-binding domain of MDM4
T5 construct: 6×His-yBBr-3C (N, cleaved yes); made in house; host or cells: E. coli BL21 (DE3)
T5 sequence (O15151 14-111 C17S): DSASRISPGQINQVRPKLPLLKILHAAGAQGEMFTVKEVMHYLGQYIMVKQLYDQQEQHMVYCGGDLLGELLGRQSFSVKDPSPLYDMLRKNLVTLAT

β-catenin:MDM2 complex = molecular target: T6, β-catenin:MDM2 complex (Homo sapiens, UniProt P35222+Q00987); assay: FP analysis of the β-catenin:MDM2 complex; assay type: biochemical; settings: read-out: EC50 of cooperative interaction between MDM2 and the Armadillo domain of β-catenin
T6 construct: 6×His-yBBr-TEV (N); 6×His-TEV (N, cleaved yes); made in house; host or cells: E. coli BL21 (DE3) pLysS (beta-catenin); E. coli BL21 (DE3) (MDM2)

β-catenin:MDM4 complex = molecular target: T7, β-catenin:MDM4 complex (Homo sapiens, UniProt O15151+P35222, C17S); assay: FP analysis of the β-catenin:MDM4 complex; assay type: biochemical; settings: direct FP assay
T7 construct: 6×His-yBBr-TEV (N); 6×His-yBBr-3C (N, cleaved yes); made in house; host or cells: E. coli BL21 (DE3) pLysS (beta-catenin); E. coli BL21 (DE3) (MDM4)
T7 sequence (P35222 134-665): T2 sequence (P35222 134-665)
T7 sequence (O15151 14-111 C17S): T5 sequence (O15151 14-111 C17S)

VHL-ELOBC [7] = molecular target: T8, VHL-ELOBC (Homo sapiens, UniProt P40337); assay: Competition FP with VHL-binding fluorescent probe HXC78; settings: n=3
T8 construct: VHL (Uniprot ID: P40337, residues 54-213) with an N-terminal 6×His-TEV tag; 6×His-TEV (N); made in house; host or cells: E. coli BL21 (DE3)

CDK2 = CDK2 (Homo sapiens, UniProt P24941); assay: CDK2 kinase activity, luminescence-based assay that detects ADP production; assay type: biochemical
Text: Among other things, two distinct clusters of Helicons that bound both CDK2 and CDK2 in complex with its partner CyclinE1, but not to CDK1 or CDK1 in complex with its partner CyclinA2 (C51 and C52). […] In some embodiments, one or more (e.g., 1, 2 or 3) or all residues to the N-terminus side of X^4 are absent. In some embodiments, one or more (e.g., 1, 2 or 3) or all residues to the C-terminus side of X^11 are absent.

VHL-ELOBC [8] = molecular target: T8, VHL-ELOBC; assay: Naive Library Presenter Screening (phage, NGS), VHL-ELOBC; assay type: binding; settings: VHL target concentration 1000 nM

Cc1cc(CN[C@H](CO)C(=O)O)c(OCc2cccc(C#N)c2)cc1OCc1cccc(-c2ccc3c(c2)OCCO3)c1C [BMS-1001]
inhibition of PD-L1:PD-1 binding (PD-L1:PD-1 binding): inhibits PD-L1:PD-1 binding
induction of PD-L1 dimerization in solution (PD-L1 [1]): induce PD-L1 dimerization
competition with PD-1 for binding to PD-L1 (PD-L1 [2]): compete more potently
PD-L1 dimerization (PD-L1 [3]): Evidence of PD-L1 dimerization

CC[C@H](C)[C@@H]1NC(=O)[C@H](C)NC(=O)[C@H](C)NC(=O)[C@H](Cc2c[nH]c3ccccc23)NC(=O)[C@H](CCC(=O)O)NC(=O)[C@@H](NC(=O)[C@H](CC(C)C)NC(=O)[C@H](CCC(=O)O)NC(=O)[C@H](CO)NC(=O)[C@H](C)NC(=O)[C@@H]2CCCN2C(=O)[C@H](CC(=O)O)NC(C)=O)CSCC(=O)Nc2ccc(cc2)NC(=O)CSC[C@@H](C(=O)N[C@@H](CC(=O)O)C(=O)N[C@@H](CC(C)C)C(=O)N[C@H](C(N)=O)C(C)C)NC(=O)[C@H](Cc2c[nH]cn2)NC1=O [FP01822]
Kd (beta-catenin [4]): 3 µM
IC50 (beta-catenin [5]): 3.7 µM

CC[C@H](C)[C@H](NC(=O)[C@H](CS)NC(=O)[C@H](CC(=O)O)NC(=O)[C@H](CC(=O)O)NC(=O)[C@H](CCC(N)=O)NC(=O)[C@H](C)NC(=O)[C@@H]1CCCN1C(=O)[C@H](CC(=O)O)NC(C)=O)C(=O)N[C@@H](CC(C)C)C(=O)N[C@@H](C)C(=O)N[C@@H](C)C(=O)N[C@@H](Cc1c[nH]cn1)C(=O)N[C@H](C(=O)N[C@@H](CS)C(=O)N[C@@H](C)C(=O)N[C@@H](CC(C)C)C(=O)N[C@@H](Cc1c[nH]c2ccccc12)C(N)=O)C(C)C [FP49433]
Kd (beta-catenin [4]; SPR, beta-catenin, read-out: KD (μM, SPR)): > 10 µM
IC50 (beta-catenin [6]): > 10 µM

CC[C@H](C)[C@H](NC(=O)[C@@H]1CSCC(=O)Nc2ccc(cc2)NC(=O)CSC[C@H](NC(=O)[C@H](CC(=O)O)NC(=O)[C@H](CC(N)=O)NC(=O)[C@H](C)NC(=O)[C@H](C)NC(=O)[C@H](CO)NC(=O)[C@@H](NC(=O)[C@@H]2CCCN2C(C)=O)[C@@H](C)CC)C(=O)N[C@@H](Cc2ccccc2)C(=O)N[C@@H](CCCCN)C(=O)N[C@@H](C)C(=O)N[C@@H](C)C(=O)N[C@@H](Cc2c[nH]c3ccccc23)C(=O)N[C@@H](CCC(N)=O)C(=O)N1)C(=O)N[C@H](C(=O)N[C@@H](Cc1c[nH]c2ccccc12)C(=O)N[C@@H](CC(C)C)C(=O)N[C@@H](Cc1c[nH]cn1)C(=O)N[C@@H](CCC(N)=O)C(N)=O)[C@@H](C)CC [Helicon H332]
ternary complex formation, MDM2 and β-catenin (MDM2 and β-catenin): could promote ternary complex formation
ternary complex formation with MDM4 (MDM4): did not occur
EC50 (β-catenin:MDM2 complex): 0.01 to 0.1 µM
promotion of interaction between MDM4 and β-catenin (β-catenin:MDM4 complex): not between MDM4 and β-catenin

CC(=O)N1CCC[C@H]1C(=O)N[C@@H](CC(N)=O)C(=O)N[C@@H](CC(C)C)C(=O)N[C@H](C(=O)NCC(=O)N[C@@H](C)C(=O)N[C@@H](CC(=O)O)C(=O)N[C@H]1CSCC(=O)Nc2ccc(cc2)NC(=O)CSC[C@@H](C(=O)N[C@@H](CC(C)C)C(=O)N[C@@H](CCC(N)=O)C(=O)N[C@@H](Cc2ccccc2)C(=O)N[C@@H](CC(C)C)C(=O)N[C@@H](Cc2c[nH]c3ccccc23)C(=O)N[C@@H](CC(=O)O)C(N)=O)NC(=O)[C@H](CCC(N)=O)NC(=O)[C@H](Cc2c[nH]c3ccccc23)NC(=O)[C@H](C)NC(=O)[C@H](C)NC(=O)[C@@H]2CCCN2C(=O)[C@H](Cc2ccccc2)NC1=O)[C@@H](C)O [Helicon H334]
ternary complex formation, MDM2 and β-catenin (MDM2 and β-catenin): could promote ternary complex formation
ternary complex formation with MDM4 (MDM4): did not occur
EC50 (β-catenin:MDM2 complex): 0.01 to 0.1 µM
promotion of interaction between MDM4 and β-catenin (β-catenin:MDM4 complex): not between MDM4 and β-catenin

Cc1ncsc1-c1ccc(CNC(=O)[C@@H]2C[C@@H](O)CN2C(=O)[C@@H](NC(=O)C2(C#N)CC2)C(C)(C)C)cc1 [VH298, (2S,4R)-1-((S)-2-(1-Cyanocyclopropanecarboxamido)-3,3-dimethylbutanoyl)-4-hydroxy-N-(4-(4-methylthiazol-5-yl)benzyl)pyrrolidine-2-carboxamide]
competition with HXC78 for binding VHL-ELOBC (VHL-ELOBC [7]): potently competes

Ac-WWVCAIAAIECSD-NH2 [FP33215]
inhibition of the kinase activity of CDK2 (CDK2): neither FP19711 nor FP33215 appeared to inhibit

DPAWWYCLDAAYDCDHT
interaction data at Target Concentration 1000 (VHL-ELOBC [8]): 0

DPAWYACMDAARVCDRT
interaction data at Target Concentration 1000 (VHL-ELOBC [8]): 0

Reference: US20240376151A1, “STAPLED PEPTIDES AND METHODS THEREOF” (FOG PHARMACEUTICALS, INC., priority 2022, published 2024)
